These results are taken from US5849743A, “Quinoxalines and drugs prepared therefrom” (BASF Aktiengesellschaft, priority 1997, dated 1998).

Each structure is given as a SMILES string. pKi: −log10 of the molar value.

One may read the pKi as the Ki on a negative log10 scale, so that one unit is a factor of ten. Read a low pKi as a high Ki.

For the experiment, the target named is AMPA receptors. As to the kind of experiment: Binding of 3H-AMPA to rat cerebral membrane material. The note with it: displacement of 3H-AMPA, membrane material from rat cerebra, incubated on ice for 60 minutes. How it is done: The pharmacological activity of the compounds I according to the invention was investigated on isolated membrane material from rat brains. For this purpose, the membrane material was incubated in the presence of the substances according to the invention with the radiolabeled substances ^3 H-2-amino-3-hydroxy-5-methyl-4-isoxazolepropionic acid (^3 H-AMPA), ^3 H-5,7-dichlorokynurenic acid or ^3 H-kainate. During this the said radioligands bind in each case to the glutamate receptors specific for them, ie. to AMPA receptors, (^3 H-5,7-dichlorokynurenic acid-binding) NMDA receptors and kainate receptors respectively. After the incubation, the membranes with the receptor-bound radioligands were separated from the free radioligands, and the radioactivity associated with the membranes as measured by liquid scintillation counting. The concentration of receptor-bound ligands, and the extent of displacement of a given radioligand by particular concentrations of the compounds I according to the invention, can be determined from the radioactivity of the membranes. […]

Consider `O=C(NCc1ccn(-c2cc3[nH]c(=O)c(=O)[nH]c3cc2[N+](=O)[O-])c1)c1ccncc1` [Example 3, acetate], for which the pKi is > 5.00. `O=C(O)Cn1c(=O)c(=O)[nH]c2cc([N+](=O)[O-])c(-n3ccc(CN4CCCCC4)c3)cc21` [Example 14, 1-Carboxymethyl-6-nitro-7-(3-((1-piperidinyl)methyl)-1-pyrrolyl)quinoxaline-2,3(1H,4H)-dione]: the pKi is > 5.00.
